Experimental data taken from patent publication US11248022B2, “Glypican-3 peptide reagents and methods” (THE REGENTS OF THE UNIVERSITY OF MICHIGAN, priority 2017, dated 2022).
Where two headings read alike, the source gives them in different places. Ends that are not written are not given here.

Tests used:
[1] = tested on: GPC3 positive tumor (from Hep3B cells); test: In vivo whole body fluorescent imaging of HCC xenograft
Description: Mice bearing HCC xenograft tumor (arrowheads) were i.v. injected with 250 μL of 300 μM near NIR GPC3 targeting peptide ALL*-Cy5.5, scrambled control peptide QLE*-Cy5.5 and unlabeled Cy5.5 free dye alone. ALL*-Cy5.5 was also injected in mice bearing GPC3 negative tumor (from SK Hep-1 cells, arrows) as control of EPR effect. Pre-injection imaging confirmed no autofluorescence was present.

advanced HCC = settings: cited from earlier work
[2] = biological target: purified recombinant GPC3 core protein (Homo sapiens, UniProt P51654); test: Phage display biopanning; type: binding; settings: four rounds of biopanning
Chain of purified recombinant GPC3 core protein (P51654 25-554): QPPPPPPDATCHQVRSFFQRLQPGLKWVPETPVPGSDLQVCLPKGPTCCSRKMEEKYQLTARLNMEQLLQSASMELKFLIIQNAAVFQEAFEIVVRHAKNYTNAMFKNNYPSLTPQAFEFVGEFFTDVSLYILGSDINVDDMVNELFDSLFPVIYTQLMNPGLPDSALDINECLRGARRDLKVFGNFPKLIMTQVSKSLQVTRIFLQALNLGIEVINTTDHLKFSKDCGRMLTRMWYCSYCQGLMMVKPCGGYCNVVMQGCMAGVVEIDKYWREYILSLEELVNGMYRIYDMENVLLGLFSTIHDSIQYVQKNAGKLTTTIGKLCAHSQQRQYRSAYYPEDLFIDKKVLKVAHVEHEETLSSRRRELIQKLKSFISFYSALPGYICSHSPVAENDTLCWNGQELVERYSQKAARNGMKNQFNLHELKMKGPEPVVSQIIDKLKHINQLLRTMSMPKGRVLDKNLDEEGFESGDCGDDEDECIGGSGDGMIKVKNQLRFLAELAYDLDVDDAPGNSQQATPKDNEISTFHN
Description: A panel of candidate peptides that are specific to GPC3 was identified using phage display technology. Peptide selection was performed using a library of M13 bacteriophage that express ˜10^9 unique clones of each individual sequence [Zhou et al., Clin Transl Gastroenterol, 6:e101 (2015); Joshi et al., Bioconjug Chem, 27:481-494 (2016); Rabinsky et al., Cell Mol Gastroenterol Hepatol, 2:222-237 (2016)]. The library was biopanned against purified recombinant GPC3 core protein immobilized in a 6-well plate. Four rounds of biopanning were performed using decreasing quantity (100, 80, 60, and 40 μg) of GPC3 core protein in successive rounds to increase binding specificity. The bound phages were eluted, amplified, precipitated and tittered using standard protocols, and the enriched clones from the candidate pool were sequenced to identify the lead candidates: ALLANHEELF (SEQ ID NO: 2), GLHTSATNLYLH (SEQ ID NO: 3), SGVYKVAYDWQH (SEQ ID NO: 4) and VGVESCASRCNN (SEQ ID NO: 5).

Hep3B cells = test: Competition for peptide binding on Hep3B cells; type: cell-based, human
Description: The specificity of peptide reagent binding was also validated by competition assay. Hep3B cells were grown on cover glass and incubated first with unlabeled peptides over a range of concentrations (0-500 μM), and then with ALL*-Cy5.5 peptide. The fluorescence intensities were measured using confocal microscopy. […] Differences in fluorescence intensity between the ALL*-Cy5.5 peptide reagent and control are significant at concentrations of 50 μM and greater.

Hep3B human HCC cells = test: Confocal microscopy of peptide binding to Hep3B cells; type: cell-based; settings: Hep3B cells, confocal microscopy
Description: (§1) FIGS. 6-2A-Q show validation of specific peptide binding to cells in vitro. […] The Hep3B versus SK-Hep1 difference was also larger for antibody than QLE (P=2.3×10^−8, 6.0-fold larger). Intensity was measured with 6 replicates per condition and fitted to an ANOVA model with terms for 9 means to log-transformed data. […] We further validated specific peptide binding to GPC3 using siRNA knockdown. […] Q) Quantified fluorescence intensities. The siCL vs siGPC3 difference was 7.4 times bigger for ALL than the same difference for QLE (P=7.8×10^−5), and the difference for antibody was 8.9 times bigger than for QLE (P=2.5×10^−5), by ANOVA on log-transformed data. Results are an average of 6 images collected independently.
(§2) On confocal microscopy, it was shown that ALL*-Cy5.5 binds to the surface (arrows) of cells with different levels of GPC3 expression. […] GPC3 is highly overexpressed in Hep3B cell cytosol and membrane while moderately expressed in HepG2 cells. No GPC3 expression is observed in SK-Hep1 cells. Tubulin serves as loading control for either cytosol or membrane fractions loaded.

HepG2 human HCC cells = test: Confocal microscopy of peptide binding to HepG2 cells; type: cell-based; settings: HepG2 cells, confocal microscopy
Description: as §1, §2

SK-Hep1 cells = test: Confocal microscopy of peptide binding to SK-Hep1 cells; type: cell-based, human
Description: as §1, §2

GPC3 = biological target: T1, GPC3 (Homo sapiens, UniProt P51654); test: siRNA knockdown of GPC3 in Hep3B cells, confocal fluorescence; type: cell-based; settings: Hep3B cells transfected with non-targeting siRNA (siCL)
T1 construct: endogenous in cells; host or cells: Hep3B human HCC cells (siCL control vs siGPC3 knockdown); also HepG2; SK-Hep1 as GPC3-negative control
T1 sequence (P51654 25-554): as above
Description: as §1
The specificity of lead candidate peptide reagent binding was validated by siRNA knockdown of GPC3 in human HCC cells. The cells were transfected with siRNA to knockdown cell surface expression of GPC3. […] These cells were transfected with non-targeting siRNA (siCL) for use as control. […] FIG. 6-1D,E show ˜4-fold reduction in fluorescence intensity with both the peptide reagent and anti-GPC3 antibody, respectively, for Hep3B cells transfected with siRNA (siGPC3) to knock down GPC3 expression. […] FIG. 6-2M, N, O and P show the same result as original FIG. 6-1A, B, D and E.

Hep3B xenograft = test: In vivo NIR laparoscopic imaging of HCC xenograft tumors; design: species or system mice; settings: NIR laparoscope, 2 hours after i.v. injection, n=8
Description: Human HCC cells Hep3B and SK-Hep1 were cultured in Eagle's Minimum Essential Medium (EMEM) at 37° C. in 5% CO2, and supplemented with 10% fetal bovine serum (FBS) and 1% penicillin/streptomycin. Western blotting was performed to validate expression level of GPC3. Cells were diluted in growth factor reduced (GFR) Matrigel Matrix (Corning), and injected into one flank of female (to avoid male dominance within a cage) nude athymic mice (nu/nu, Jackson Laboratory) at 4 to 6 weeks of age with weight between 20 to 25 grams. ˜5×10^6 cells were implanted per mouse.
A standard surgical laparoscope (#49003 AA, HOPKINS® II Straight Forward Telescope 0°, Karl Storz) that is ˜10 mm in diameter and has a 31 cm length rigid sheath was adapted to collect reflectance and fluorescence concurrently. Nude mice with human HCC xenograft 2 weeks post implantation were tail vein injected with 200 μL 300 μM GPC3 peptide ALL*-Cy5.5. During imaging, the mice were anesthetized with inhaled isoflurane. We first used laparoscope with white light illumination to exam the xenograft. Laparoscopic images were taken two hours post injection in both fluorescence and reflection mode simultaneously with excitation solid state diode laser (660-S, Toptica Photonics) to deliver excitation at λex=660 nm into the fiber optic light guide. Images were collected at 5 frames/sec with a laser power of 1.2 mW. Hoechst 33342 (H1399, Life Technologies) at a dose of 10 mg/kg diluted in 200 μL of PBS was delivered intravenously via a tail vein injection to stain the cell nuclei 30 minutes before sacrificing the mouse. Xenograft tumors were resected and confocal fluorescence images were collected with Cy5.5 and DAPI filters 50 μm beneath the surface using a confocal microscope (Leica SPSX Upright 2-Photon Confocal Microscope). Following imaging, resected xenografts were fixed and formalin embedded for immunohistochemistry and H&E staining as described previously.
Fluorescence images of mouse HCC xenograft taken at 2 hrs post peptide injection were registered with corresponding reflectance images taken simultaneously. The fluorescence intensity of each pixel in the image was divided by intensity of corresponding pixel in the reflectance image in order to account for the difference in distance between each pixel and the laser source. A heat map image was generated from the resulting ratios at each pixel. Image segmentation was performed automatically by custom Matlab (Mathworks) software program using Ostu's Method [Otsu, Automatica, 11(285-296): 23-27 (1975)]. Target to background ratio of each processed image was calculated by dividing the average intensity of pixels inside the segmented tumor and that of those within 30 pixels outside of segmentation outline.

[3] = tested on: HCC xenograft tumor overexpressing GPC3; test: In vivo handheld dual axes confocal endomicroscope imaging; design: species or system mice
Description: GPC3 expression from human HCC xenograft tumors was evaluated in real time by collecting optical sections in vivo using a handheld 5.5 mm diameter dual axes confocal endomicroscope. A solid-state diode laser (300 mW, CNI Laser Inc.) provided illumination at λex=671 nm. A parabolic mirror focused the illumination and collection beams to overlap below the tissue surface with lateral and axial resolution of 2 and 5 μm, respectively. A compact, 3D monolithic scanner located in the distal tip provided large vertical displacements and wide angular deflections to produce images in the vertical (XZ) and horizontal (XY) planes with a FOV of 1000×430 and 1000×1000 μm^2, respectively. NIR fluorescence is collected and passes through a band pass filter (FF01-716/40-25, Semrock) that transmits from 696-736 nm with >93% efficiency for detection with a photomultiplier tube (PMT, H7422PA-40, Hamamatsu) detector. The peptides were injected via the tail vain, and dissected away the skin overlying the tumor to gain access. The distal tip of the endomicroscope was placed in contact with the tumor using a drop of saline to couple the light. Laser power <2 mW on the tissue was used to avoid photobleaching. NIR fluorescence images were collected at 5 frames per sec. 3D volumetric images were reconstructed from a series of images collected in the vertical plane using Amira software (ver 5.4.3, FEI Corporation).
The probe was small enough to be comfortably held in the surgeon's hand during surgery, FIG. 12A, for in vivo imaging of biomarker expression. Its diameter was 5.5 mm and delivered 671 nm near-infrared laser at 2 mW. Mouse carrying HCC xenograft tumor overexpressing GPC3 was first injected with 250 μL 300 μM ALL*-Cy5.5 peptide intravenously and after 2 hours the probe was held in contact with exposed subcutaneous tumor to acquire in vivo peptide binding images, FIG. 12B. Images were collected in either the vertical or horizontal plane with 430 μm depth or 1000×1000 μm^2 area, respectively, at 5 frames per second. With measured lateral resolution of 2.49 μm and axial resolution of 4.98 μm, each peptide stained cell can be clearly seen (arrows). […] Strong uptake (arrows) of ALL*-Cy5.5 in tumor was captured on optical sections collected in the horizontal (1000×1000 μm^2, Video 1) FIG. 12C and vertical (1000×430 μm^2, Video 2) FIG. 12D planes, respectively. A series of vertical cross-section images were reconstructed into 3D MIP volume (Video 3), FIG. 12E.

Hep3B xenograft tumors = test: Ex vivo confocal validation on Hep3B xenograft sections and normal liver; design: species or system mice; settings: normal mouse liver sections
From the text: (§3) The specimens were also sectioned for collection of confocal images to perform microscopic validation of peptide binding ex vivo.

SK-Hep1 xenograft tumors = test: Immunostaining on GPC3 negative SK-Hep1 xenograft sections; design: species or system mice; settings: no GPC3 expression
From the text: FIGS. 18A-D show immunostaining on GPC3 negative HCC xenograft tumor.
as §3

## CCN1\C(=C/C=C/C=C/C2=[N+](CCCCCC(=O)O)c3ccc4c(S(=O)(=O)O)cc(S(=O)(=O)O)cc4c3C2(C)C)C(C)(C)c2c1ccc1c(S(=O)(=O)[O-])cc(S(=O)(=O)O)cc21 [free Cy5.5 dye, reference compound]
[1]; i.v. injection, whole-body NIR imaging
  time of peak uptake/signal post injection: 0.5 h

## CNC(=O)c1cc(Oc2ccc(NC(=O)Nc3ccc(Cl)c(C(F)(F)F)c3)cc2)ccn1 [sorafenib, Sorafenib]
Advanced HCC; Asian patients
  survival duration: 6.5 months
Advanced HCC; Caucasian patients
  survival duration: 7.9 months
Advanced HCC; clinic studies (SHARP)
  survival advantage over placebo: ~3 months

## ALLANHEELF
[2]
  level of enrichment in biopanning: highest level of enrichment

## ALLANHEELFQT [ALL*]
Hep3B cells
  effect of unlabeled peptide on ALL*-Cy5.5 fluorescence intensity: dose-dependent decrease
Hep3B cells; unlabeled peptide 0-500 μM
  concentration of unlabeled peptide giving significant decrease in ALL*-Cy5.5 binding: ≥ 50 µM

## QLE*-Cy5.5: scrambled control peptide QLELTFHANLEA (SEQ ID NO: 6) labeled with Cy5.5 via GGGSK linker (QLELTFHANLEAGGGSK-{Cy5.5}) [reference compound]
Hep3B human HCC cells
  fluorescence intensity from binding to cell surface: Minimal signal
HepG2 human HCC cells
  fluorescence intensity from binding to cell surface: Minimal signal
SK-Hep1 cells
  fluorescence intensity from binding to cell surface: Minimal signal
GPC3
  binding to cell surface: minimal binding
Hep3B xenograft
  target-to-background (T/B) ratio: 3.0±0.7
[3]; 2 hours after i.v. injection, n=8
  fluorescent intensity at tumor: 16±4
[3]; horizontal and vertical planes
  uptake/staining in tumor on optical sections: Minimal staining
Hep3B xenograft tumors
  staining of normal mouse liver: Minimal staining
SK-Hep1 xenograft tumors
  staining of xenograft sections: No staining
[1]; 2 hours post injection, mean±SD
  target-to-background (T/B) ratio: 1.12±0.19

## QLELTFHANLEA [QLE*, scrambled (control) peptide, unlabeled, reference compound]
Hep3B cells
  effect of unlabeled peptide on ALL*-Cy5.5 fluorescence intensity: no change

## QRH*-Cy5.5: label printed in b35/b133 without definition; apparently a misprint for QLE*-Cy5.5 or ALL*-Cy5.5 (QRHKPREGGGSK; not fully specified (C-terminus); also: Cy5.5 label, site not given here, QRH* code without meaning)
Hep3B xenograft
  target-to-background (T/B) ratio: 3.0±0.7
